Assay results as given in PubChem BioAssay AID588780 (Sanford-Burnham Center for Chemical Genomics, 2011).
Calls of active or inactive are those of the source.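 How the source made its calls: active means compounds whose fitted half-maximal concentration in the cell-protection dose series is at or below a set limit; inactive means the rest.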

Each compound was assayed on H9c2 cardiomyocytes, 2-deoxyglucose stress, ATP luminescence, 2 h (assay: protection of cardiomyocytes from 2-deoxyglucose injury, dose response, cell-based, 2-deoxyglucose stress, uHTS hits (AID 588780)).
With CCOC(=O)Cn1c(=NC(=O)c2cc(-c3cccs3)nc3ccccc23)sc2cc(S(N)(=O)=O)ccc21 the IC50 was > 79 µM (inactive).
With COc1cc(/C=N/NC(=O)c2cccnc2)ccc1OCC(=O)Nc1ccccc1Cl the IC50 was > 79 µM (inactive).
In the case of CC1Cc2ccccc2N1C(=O)COC(=O)c1n[nH]c(=O)c2ccccc12 (centres undefined), the IC50 is reported as > 79 µM (inactive).
In the case of c1ccc2c(c1)nc(Nc1ccc3c(c1)OCO3)c1nnnn12, the IC50 is reported as 16.9 µM.
With CC(C)C1Nc2ccc(C(=O)N3CCN(c4ccccn4)CC3)cc2NC1=O (centres undefined) the IC50 was > 79 µM (inactive).
For COc1ccc2[nH]c(=O)c(CNc3ccc(C)c(C)c3)cc2c1, the IC50 was 49.8 µM (inactive).
Cc1ccc(NC(=O)c2cc(=O)c3ccccc3o2)cc1S(=O)(=O)N1CCOCC1 was tested, and the IC50 was 35.4 µM (inactive).
O=c1c2ccccc2oc2nc(-c3ccco3)n(Cc3ccccc3)c(=O)c12 was tested, and the IC50 was > 79 µM (inactive).
For COc1ccc(-c2cc(NC=O)c3ncc(-c4cccc(C(C)=O)c4)n3c2)cc1, the IC50 was > 79 µM (inactive).
With CCOC(=O)C1=C(C)NC(C)=C(C(=O)OCC)C1C(=O)OCC(=O)NC1CCCCC1 the IC50 was 6.02 µM.
For CC(=O)Nc1cccc(/C(C)=N/NC(=O)c2cccs2)c1, the IC50 was > 79 µM (inactive).
With Cc1ccc(OCC(=O)NCc2n[nH]c(=O)c3ccccc23)cc1 the IC50 was > 79 µM (inactive).
With O=C(NCC(=O)N(Cc1ccccc1)C(C(=O)NC1CCCCC1)c1ccco1)c1ccco1 (centres undefined) the IC50 was 16.2 µM.
With COc1ccccc1OCC(=O)Nc1cccc(-c2nnc(-c3ccco3)o2)c1 the IC50 was > 79 µM (inactive).
In the case of CCOC(=O)CSc1nc2ccccc2c(=O)[nH]1, the IC50 is reported as > 79 µM (inactive).
Work on O=C(c1ccco1)N1CCN(C(=O)c2cc(-c3ccncc3)nc3ccc(Br)cc23)CC1 yielded an IC50 of 13.8 µM.
Work on Cc1ccc(NC(=O)c2nc[nH]c2C(=O)NCCCNC(=O)c2[nH]cnc2C(=O)Nc2ccc(C)cc2)cc1 yielded an IC50 of 21.5 µM.
In the case of O=C(Cn1[nH]c(=O)c2ccccc2c1=O)OCC(=O)N(Cc1ccccc1)Cc1ccccc1, the IC50 is reported as > 79 µM (inactive).
For CCN(CC(=O)Nc1c(F)cccc1F)C(=O)CCc1nc2ccccc2c(=O)[nH]1, the IC50 was > 79 µM (inactive).
In the case of COc1ccc(OC)c(/C=N/NC(=O)c2cc3c(OC)c(OC)ccc3[nH]2)c1, the IC50 is reported as > 79 µM (inactive).
With COc1ccccc1-c1cc2nc(-c3ccccc3)cc(N3CCN(C(=O)c4ccoc4)CC3)n2n1 the IC50 was > 79 µM (inactive).
With CCn1c(/C=N/NC(=O)c2ccc(OC)cc2)nc2ccccc21 the IC50 was > 79 µM (inactive).
Cc1ccc(C(C(=O)NCc2ccccc2)N(Cc2ccco2)C(=O)c2snc(C(N)=O)c2N)o1 (centres undefined) was tested, and the IC50 was > 79 µM (inactive).
With N#Cc1c(-c2cccs2)cc(-c2cccnc2)nc1N the IC50 was > 79 µM (inactive).
CN(CC(=O)Nc1cccc(F)c1)C(=O)CCCc1nc2ccccc2c(=O)[nH]1 was tested, and the IC50 was > 79 µM (inactive).
Cc1cccc(-n2[nH]c(C)c(C=Nc3ccc4[nH]c(=O)[nH]c4c3)c2=O)c1 was tested, and the IC50 was > 79 µM (inactive).
With O=C1c2ccccc2C(=O)N1CCCCSc1nc2ccccc2c(=O)n1CCCN1CCOCC1 the IC50 was 58.6 µM (inactive).
COC(=O)c1cc(C(=O)OCC(=O)N2c3ccccc3NC(=O)C2(C)C)cc([N+](=O)[O-])c1 was tested, and the IC50 was 39 µM (inactive).
With CCC1(CC)NC(=O)N(CC(=O)OCC(=O)Nc2ccccc2[N+](=O)[O-])C1=O the IC50 was > 79 µM (inactive).
O=C(CCc1nc2ccccc2c(=O)[nH]1)Nc1ccc(F)cc1 showed an IC50 of 27.6 µM.
Nc1c(C(=O)NC2CC2)c2nc3ccccc3nc2n1-c1ccc2c(c1)OCO2 was tested, and the IC50 was > 79 µM (inactive).
O=C(COc1ccccc1[N+](=O)[O-])Nc1ccc(N2CCN(C(=O)c3cccs3)CC2)cc1 showed an IC50 of 8.51 µM.
In the case of COc1cccc(-c2nnc3sc(-c4ccccn4)nn23)c1, the IC50 is reported as > 79 µM (inactive).
For N#C/C(=C\Nc1ccc2c(c1)OCCO2)c1nc2ccccc2[nH]1, the IC50 was > 79 µM (inactive).
CC(C)NC(=O)COC(=O)Cn1[nH]c(=O)c2ccccc2c1=O was tested, and the IC50 was > 79 µM (inactive).
O=C(OCc1cc(=O)n2ccsc2n1)c1ccc(O)cc1O was tested, and the IC50 was > 79 µM (inactive).
In the case of O=c1[nH]c(CN2CCCC2)nc2sc3c(c12)CCC3, the IC50 is reported as > 79 µM (inactive).
COc1cc(/C=N/NC(=O)c2ccncc2)ccc1OC(=O)c1ccccc1Cl was tested, and the IC50 was > 79 µM (inactive).
In the case of COc1ccc(CCCNC(=O)C2(C)Cc3c(-c4ccc(NC(C)=O)cc4)ccnc3O2)cc1 (centres undefined), the IC50 is reported as > 79 µM (inactive).
Work on COc1ccc(N(C(=O)c2cccc([N+](=O)[O-])c2)S(=O)(=O)c2cccs2)cc1 yielded an IC50 of 13.4 µM.
Compound CCN(CC)C(=O)c1ccc2c3c(cccc13)C(=O)N(CCc1ccc(OC)c(OC)c1)C2=O has an IC50 of 11.5 µM.
For NC(=O)C1=C(c2ccccc2)c2ccccc2C1=O, the IC50 was > 79 µM (inactive).
COc1ccc(N2CC(C(=O)NCc3n[nH]c(=O)c4ccccc34)CC2=O)cc1 (centres undefined) was tested, and the IC50 was > 79 µM (inactive).
Work on COc1ccccc1NS(=O)(=O)c1cc(NC(=O)Cc2n[nH]c(=O)c3ccccc23)ccc1Cl yielded an IC50 of 24.5 µM.
In the case of COc1ccc(N(CC(=O)Nc2cccc(C(C)=O)c2)S(=O)(=O)c2ccc(NC(C)=O)cc2)cc1, the IC50 is reported as 10.7 µM.
Work on NC(=O)c1ccc(Nc2nnc(-c3ccc(O)cc3)c3ccccc23)cc1 yielded an IC50 of 29.6 µM.
For Cc1ccc(C)c(C(=O)Nc2cc(C)nn2-c2nc(C)cc(C)n2)c1, the IC50 was > 79 µM (inactive).
COc1ccc(C(=O)Nc2cccc(/C(C)=N/NC(=O)c3ccc([N+](=O)[O-])c(C)c3)c2)cc1OC was tested, and the IC50 was > 79 µM (inactive).
NC(=O)c1cccc(Nc2nc(C(N)CCc3ccccc3)cs2)n1 (centres undefined) was tested, and the IC50 was > 79 µM (inactive).
In the case of COc1ccccc1OCC(=O)Nc1sc2c(c1C(=O)NCC1CCCO1)CCC2 (centres undefined), the IC50 is reported as > 79 µM (inactive).
CCCC(=O)Nc1cc(C)c2c(=O)oc3ccccc3c2n1 was tested, and the IC50 was > 79 µM (inactive).
CCOC(=O)N1CCN(C(=O)CSc2nc3c(cnn3-c3ccc(C)cc3)c(=O)[nH]2)CC1 was tested, and the IC50 was > 79 µM (inactive).
In the case of CC(=O)Nc1ccc2c(c1)[nH]c(=O)c1ccccc12, the IC50 is reported as 76.5 µM (inactive).
COc1cc(NC(=O)c2c(OC)cccc2OC)ccc1NC(=O)c1cc2ccccc2o1 gave an IC50 of 12.7 µM.
In the case of CCOc1cccc(Nc2cc3n(c(=O)n2)CCc2cc(OC)c(OC)cc2-3)c1, the IC50 is reported as 29.9 µM.
O=C(CCc1nc2ccccc2c(=O)[nH]1)N1CCN(S(=O)(=O)c2cccc(F)c2)CC1 was tested, and the IC50 was > 79 µM (inactive).
In the case of Cc1ccc(Nc2nc(N)[nH]c(=O)c2N=O)cc1, the IC50 is reported as > 79 µM (inactive).
Brc1ccc(-c2nn3c(-c4ccccn4)nnc3s2)o1 was tested, and the IC50 was 52.8 µM (inactive).
In the case of CCOC(=O)N1CCC(N2C(=O)c3ccccc3C2Nc2cc(OC)c(OC)c(OC)c2)CC1 (centres undefined), the IC50 is reported as > 79 µM (inactive).
In the case of O=C(NCc1ccco1)c1cc(-c2cccnc2)nc2ccc(Cl)cc12, the IC50 is reported as > 79 µM (inactive).
For CN(CC(=O)Nc1c(Cl)cccc1Cl)C(=O)Cn1[nH]c(=O)c2ccccc2c1=O, the IC50 was > 79 µM (inactive).
O=C(CN1CCN(Cc2ccccc2)CC1)Nc1ccc([N+](=O)[O-])cc1C(=O)Nc1ccccc1F was tested, and the IC50 was 35.6 µM (inactive).
Nc1ccc(-c2n[nH]c(=O)c3ccccc23)cc1N was tested, and the IC50 was > 79 µM (inactive).
With O=C(Nc1cccc(Cl)c1)c1nc[nH]c1C(=O)NCCCNC(=O)c1[nH]cnc1C(=O)Nc1cccc(Cl)c1 the IC50 was > 79 µM (inactive).
For O=c1oc(-c2ccco2)nc2c1cnn2-c1ccccc1, the IC50 was > 79 µM (inactive).
With O=C(COc1cccc2c1CCNC2=O)Nc1cccc(F)c1 the IC50 was 28 µM.
For CCOc1ccc(-n2c(C)c(C(C)=O)c3cc(OC(C)=O)ccc32)cc1, the IC50 was > 79 µM (inactive).
For NC(=O)c1cccc2c1C(=O)N(C1CCCCC1)C2, the IC50 was > 79 µM (inactive).
O=C(Nc1ccccc1)c1nc[nH]c1C(=O)NCCCCCCNC(=O)c1[nH]cnc1C(=O)Nc1ccccc1 gave an IC50 of 10.5 µM.
With COc1ccc(OC)c(C(=O)COC(=O)c2ccc([N+](=O)[O-])o2)c1 the IC50 was > 79 µM (inactive).
For COc1ccc(CCNC(=O)C(=O)NCC2CCCN2S(=O)(=O)c2ccccc2)cc1OC (centres undefined), the IC50 was > 79 µM (inactive).
Work on C=CCOC(=O)COc1ccc2c3c(c(=O)oc2c1)CCCC3 yielded an IC50 of 28.1 µM.
COc1ccc(-c2cc(C(=O)N(C)Cc3ccc(OC)c(OC)c3OC)c3ccccc3n2)cc1OC gave an IC50 of 10.4 µM.
With Oc1ccc(Cl)cc1C=Nc1ccc2c3c(cccc13)CC2 the IC50 was > 79 µM (inactive).
CCOC(=O)c1ccc(-c2ccc(C3Nc4ccccc4C(=O)N3O)o2)cc1 (centres undefined) showed an IC50 of 20.4 µM.
In the case of COc1cc(/C=C/c2nc(-c3ccccc3O)n[nH]2)cc(OC)c1OC, the IC50 is reported as > 79 µM (inactive).
Cc1ccc2[nH]c(=O)c(CN(CCCN3CCOCC3)C(=O)Nc3ccc(Cl)cc3)cc2c1 was tested, and the IC50 was > 79 µM (inactive).
O=C1C=C(N2CCOCC2)c2cccc3cccc1c23 was tested, and the IC50 was > 79 µM (inactive).
In the case of O=C(COc1ccc(Cl)cc1)NCc1n[nH]c(=O)c2ccccc12, the IC50 is reported as > 79 µM (inactive).
In the case of C=C1C(C)C2C(Cc3ccccc3)NC(=O)C23OC(=O)/C=C/C(O)CCCC(C)C/C=C/C3C1O (centres undefined), the IC50 is reported as > 79 µM (inactive).
With O=C1NC(c2cccs2)Nc2ccccc21 (centres undefined) the IC50 was > 79 µM (inactive).
With CC(=O)Nc1cc(C)nn1-c1nc2ccccc2s1 the IC50 was 18 µM.
For CCc1ccc(C(C)NC(=O)c2cc(C)oc2C)cc1 (centres undefined), the IC50 was > 79 µM (inactive).
In the case of CCOC(=O)c1ccccc1NC(=O)c1ccc2c(=O)n3c(nc2c1)CCCCC3, the IC50 is reported as > 79 µM (inactive).
With COc1ccc(N(Cc2cc3cc(OC)ccc3[nH]c2=O)C(=O)c2cccnc2)cc1 the IC50 was > 79 µM (inactive).
For O=C(CN(c1ccc2c(c1)OCCO2)S(=O)(=O)c1ccccc1)Nc1ccc2c(c1)OCO2, the IC50 was > 79 µM (inactive).
CC(C)(C)OC(=O)C[C@@H]1C/C=C\C[C@@H](CC(=O)N[C@@H](CO)Cc2ccccc2)C(=O)NC[C@@H](c2ccccc2)OC1=O gave an IC50 of 11.9 µM.
CCN(CC)CCn1c(NC(=O)c2ccc(Cl)cc2)nc2ccccc21 was tested, and the IC50 was > 79 µM (inactive).
COc1ccc(NC(=S)N(Cc2cccnc2)Cc2cc3cc(OC)c(OC)cc3[nH]c2=O)cc1 was tested, and the IC50 was > 79 µM (inactive).
O=C(COC(=O)c1ccccc1C(=O)OCC(=O)NCCc1c[nH]c2ccccc12)NCCc1c[nH]c2ccccc12 was tested, and the IC50 was > 79 µM (inactive).
For CCCn1nc(C(=O)OCC(=O)c2c(N)n(C)c(=O)n(C)c2=O)c2ccccc2c1=O, the IC50 was 56.6 µM (inactive).
With COc1ccc(-c2cc(NC(C)=O)c3ncc(-c4ccc(OC)c(OC)c4)n3c2)cc1OC the IC50 was > 79 µM (inactive).
With CCCc1cc2c(cc1NC(=O)c1ccc(Br)cc1)OCO2 the IC50 was 29.3 µM.
CCOc1cc(NC(=O)C2CC2)c(OCC)cc1NC(=O)c1ccccn1 was tested, and the IC50 was > 79 µM (inactive).
